Measured values taken from US20230346743A1, “COMBINATION CANCER THERAPIES” (The Board of Regents of the University of Oklahoma, priority 2018, published 2023).

Key:
Cervical Cancer = test: Dose reduction index at various fold effects in cervical cancer; type: cell-based, human; settings: cell line not named
Source text: Combination Indices (CI's) were derived to determine the level of synergy using the Chow and Talalay method. […] The Dose Reduction Indices (DRIs) were derived to determine the level of reduction for one drug that could be allowed by addition of the second drug at various fold effects (Fas) of the combination treatment (Table 16).

TP21 gene = test: qRT-PCR of TP21 in SKOV3 cells; type: cell-based, human; settings: SKOV3 parental (p53 null) and R273H m-p53 cells; SHetA2 10 µM, PRIMA-1 20 µM, 16 h
[1] = system: MESOV human ovarian cancer cells; test: Tumor establishment after intraperitoneal injection of MESOV cells (secondary chemoprevention model); type: in vivo; settings: nu/nu mice, MESOV i.p.
Description: Four-week-old female athymic nude mice (NCr-Foxn1^nu) were obtained from Taconic Biosciences under an approved Institutional Animal Care and Use Committee (IACUC) protocol. Mice were acclimatized for two weeks, fed with a standard diet and ear tagged during the acclimatization period. The timing to tumor development after intraperitoneal injection with various amounts of MESOV cells was determined in a pilot study prior. In the intervention experiment, 6-week-old mice were injected with 20 million MESOV human ovarian cancer cells in their intraperitoneal region. Drug treatment was initiated 4 weeks after the injection of cancer cells. Mice were randomized to four treatment groups before the start of treatment based on their body weight. There was no significant (one-way ANOVA, p >0.999) difference in body weight between groups at the start of treatment. Twelve mice were allocated to each group based on the power analysis performed while designing experiment. […] Controls were gavaged with Kolliphor HS15 (30% in water). […] (10 mg/kg) was dissolved in phosphate buffered saline and injected into the peritoneum of mice every other day. Initially SHetA2 dosing was administered every day for two weeks in SHetA2 alone and drug combination groups, and then switched to every other day for the next three weeks due to the stress caused to the mice by daily gavage. Oral gavaging was performed with sterile disposable plastic feeding tubes 20 ga × 38 mm (Instech Laboratories, Inc., Plymouth Meeting, PA, USA). Three mice in the drug combination group died after two weeks of drug treatment due to gavaging incidents. Body weights were recorded and animal health was monitored weekly. After the end of drug intervention period, all mice were euthanized by CO2 asphyxiation followed by exsanguination, their tumors and other vital organs were collected for further analysis. After measuring the total tumor weight, a portion of the tumors were snap frozen in liquid nitrogen and another portion was formalin fixed. The formalin fixed tissue samples were paraffin embedded, sectioned and stained with hematoxylin and eosins for histology studies. An experienced pathologist reviewed blinded histology slides for kidney and liver toxicity. Presence or absence of tumor at the end of the treatment period was used as the primary outcome measure. […] Two by two logistic regression was used to compare the four treatment groups (Untreated control, SHetA2, […] combination) in the study. Mice in the first 3 groups had complete data, while 3 mice in the combo group died early and had zero tumor weights. […]

[2] = Toxicity in the MESOV mouse model (body weight, ascites, kidney and liver histology); type: in vivo; settings: mouse, in vivo, ip
Description: Four-week-old female athymic nude mice (NCr-Foxn1^nu) were obtained from Taconic Biosciences under an approved Institutional Animal Care and Use Committee (IACUC) protocol. Mice were acclimatized for two weeks, fed with a standard diet and ear tagged during the acclimatization period. The timing to tumor development after intraperitoneal injection with various amounts of MESOV cells was determined in a pilot study prior. In the intervention experiment, 6-week-old mice were injected with 20 million MESOV human ovarian cancer cells in their intraperitoneal region. Drug treatment was initiated 4 weeks after the injection of cancer cells. Mice were randomized to four treatment groups before the start of treatment based on their body weight. There was no significant (one-way ANOVA, p >0.999) difference in body weight between groups at the start of treatment. Twelve mice were allocated to each group based on the power analysis performed while designing experiment. The sample size was determined to provide over 80% power to detect a 915 mm^3 difference in tumor volume between PRIMA-1^MET treatment alone and the drug combination treatment using a two-sided 0.05 level t-test. SHetA2 was administered by gavage at 60 mg/kg in 30% Kolliphor HS15 (Sigma). Controls were gavaged with Kolliphor HS15 (30% in water). PRIMA-1^MET (10 mg/kg) was dissolved in phosphate buffered saline and injected into the peritoneum of mice every other day. Initially SHetA2 dosing was administered every day for two weeks in SHetA2 alone and drug combination groups, and then switched to every other day for the next three weeks due to the stress caused to the mice by daily gavage. Oral gavaging was performed with sterile disposable plastic feeding tubes 20 ga × 38 mm (Instech Laboratories, Inc., Plymouth Meeting, PA, USA). Three mice in the drug combination group died after two weeks of drug treatment due to gavaging incidents. Body weights were recorded and animal health was monitored weekly. After the end of drug intervention period, all mice were euthanized by CO2 asphyxiation followed by exsanguination, their tumors and other vital organs were collected for further analysis. After measuring the total tumor weight, a portion of the tumors were snap frozen in liquid nitrogen and another portion was formalin fixed. The formalin fixed tissue samples were paraffin embedded, sectioned and stained with hematoxylin and eosins for histology studies. An experienced pathologist reviewed blinded histology slides for kidney and liver toxicity.

[3] = system: SiHa cervical cancer cell line xenograft; test: SiHa xenograft tumor growth; type: in vivo, mice; settings: gavage 60 mg/kg SHetA2, 100 mg/kg palbociclib or the combination every other day
Source text: FIG. 49. […] Controls were gavaged with the same Kolliphor HS15 used to suspend the drugs. Using a generalized estimating equations (GEE) model to analyze tumor growth treated as a continuous variable, there was a significant additive effect of SHetA2 (p<0.001) and palbociclib (p<0.001) on day 65 of treatment. This additive effect between SHetA2 (p=0.001) and palbociclib (p=0.051) was trending significant at day 63 of treatment. Additionally, SHetA2 starts to show significant tumor suppressing activity as early as day 63 of treatment (p=0.045).

CC1(C)CC(C)(C)c2cc(NC(=S)Nc3ccc([N+](=O)[O-])cc3)ccc2S1 [SHetA2]
SHetA2 Dose (Cervical Cancer; Fold Effect (Fa) 0.05): 5.44
SHetA2 Dose (Cervical Cancer; Fold Effect (Fa) 0.75): 8.23
SHetA2 Dose (Cervical Cancer; Fold Effect (Fa) 0.90): 12.43
SHetA2 Dose (Cervical Cancer; Fold Effect (Fa) 0.95): 16.47
TP21 transcription (qRT-PCR) (TP21 gene): induced TP21 transcription
OR for preventing tumor development (additive logistic regression model) [1]: 10.384
Tumor-free rates ([1]; SHetA2 60 mg/kg gavage, PRIMA-1^MET 10 mg/kg i.p., treatment from day 28 for 38 days): 42%
Effects on body weight or ascites (abdominal size) [2]: no significant effects on body weight or ascites
Kidney or liver toxicity (H & E histology) [2]: did not cause kidney or liver toxicity
SiHa xenograft tumor growth [3]: significantly reduce SiHa cervical cancer cell line xenograft tumor growth
